Source: paper PMC9015279 (Chemmedchem, 2021)

What follows are compounds tested against T1, SARS-CoV-2 main protease (M^pro) (Severe acute respiratory syndrome coronavirus 2, UniProt P0DTD1) (assay: biochemical). Details: 50 nM M^pro, […] substrate, pH 7.3, 15 min pre-incubation; read-out: FRET IC50.

Structure (SMILES) | IC50
O=c1c2ccccc2sn1-c1ccccc1 [Compound 3a] | ~130 nM
CC(C)CCn1sc2ccccc2c1=O [Compound 4a] | ~320 nM
CC(C)CCn1sc2ccc(Br)cc2c1=O [Compound 4d] | ~210 nM
CCCCCn1sc2ccccc2c1=O [Compound 7] | ~410 nM
O=c1c2ccccc2sn1-c1ccccn1 [Compound 8] | 220 ± 100 nM
O=C1C[C@H](Cn2sc3ccccc3c2=O)CN1 [Compound 9] | 510 ± 20 nM
COC(=O)Cn1c(=O)c2ccccc2[s+]1[O-] (stereo not drawn) [Compound 12] | 2830 ± 340 nM

Same assay, conditions: 50 nM M^pro, […] substrate, pH 7.3, 15 min pre-incubation; read-out: FRET pIC50 (converted)

Structure (SMILES) | IC50
O=c1c2ccccc2sn1-c1ccccc1 [Compound 3a] | 129 nM
O=c1c2cc(Br)ccc2sn1-c1ccccc1 [Compound 3e] | 30.9 nM
CC(C)CCn1sc2ccccc2c1=O [Compound 4a] | 316 nM
CC(C)CCn1sc2c(Br)cccc2c1=O [Compound 4c] | 93300 nM
CC(C)CCn1sc2ccc(Br)cc2c1=O [Compound 4d] | 209 nM
O=c1c2ccccc2sn1Cc1ccccc1 [Compound 5] | 178 nM
O=c1c2ccccc2sn1CC1CCCCC1 [Compound 6] | 933 nM
CCCCCn1sc2ccccc2c1=O [Compound 7] | 407 nM
O=c1c2ccccc2sn1-c1ccccn1 [Compound 8] | 214 nM
COC(=O)CCn1sc2ccccc2c1=O [Compound 11] | 245 nM

Same assay, conditions: FRET IC50, 50 nM M^pro, […] substrate, pH 7.3, 15 min pre-incubation

Structure (SMILES) | IC50
O=c1[nH]sc2ccccc12 [Compound 2] | 1510 ± 90 nM
COCCn1sc2ccccc2c1=O [Compound 10] | 950 ± 40 nM

Same assay, conditions: FRET pIC50, 50 nM M^pro, […] substrate, pH 7.3, 15 min pre-incubation

Structure (SMILES) | IC50
COCCn1sc2ccccc2c1=O [Compound 10] | 776 nM

Same assay, conditions: ratio of FRET pIC50 to number of reactions observed by MS

Structure (SMILES) | FRET pIC50 / apparent max. no. of reactions
O=c1[nH]sc2ccccc12 [Compound 2] | 1.0
O=c1c2ccccc2sn1-c1ccccc1 [Compound 3a] | 0.6
O=c1c2cc(Br)ccc2sn1-c1ccccc1 [Compound 3e] | 3.8
O=c1c2cnccc2sn1-c1ccccc1 [Compound 3f] | 0.7
CC(C)CCn1sc2ccccc2c1=O [Compound 4a] | 1.1
CC(C)CCn1sc2ccc(Br)cc2c1=O [Compound 4d] | 3.3
O=c1c2ccccc2sn1Cc1ccccc1 [Compound 5] | 1.1
O=c1c2ccccc2sn1CC1CCCCC1 [Compound 6] | 1.0
CCCCCn1sc2ccccc2c1=O [Compound 7] | 1.3
O=c1c2ccccc2sn1-c1ccccn1 [Compound 8] | 1.1
O=C1C[C@H](Cn2sc3ccccc3c2=O)CN1 [Compound 9] | 2.1
COCCn1sc2ccccc2c1=O [Compound 10] | 1.2
COC(=O)CCn1sc2ccccc2c1=O [Compound 11] | 1.1

These compounds were tested against T1, SARS-CoV-2 main protease (M^pro) (assay: biochemical). Details: not given.

Structure (SMILES) | IC50
O=c1[nH]sc2ccccc12 [Compound 2] | 990 ± 150 nM
COCCn1sc2ccccc2c1=O [Compound 10] | 780 ± 180 nM

Same assay, conditions: M^pro (0.3 µM) incubated 15 min with compound, TSAVLQ/SGFRK-NH2 peptide (4 µM), 10 min reaction; read-out: SPE-MS IC50

Structure (SMILES) | IC50
Cc1cccc2c(=O)n(-c3ccccc3)sc12 [Compound 3b] | > 100000 nM
O=c1c2cccc(Br)c2sn1-c1ccccc1 [Compound 3c] | 10900 ± 820 nM
O=c1c2cccc(-c3ccccc3)c2sn1-c1ccccc1 [Compound 3d] | > 100000 nM
Cc1cccc2c(=O)n(CCC(C)C)sc12 [Compound 4b] | > 100000 nM
CC(C)CCn1sc2c(Br)cccc2c1=O [Compound 4c] | > 100000 nM
CC(C)CCn1sc2ccc(Br)cc2c1=O [Compound 4d] | 430 ± 10 nM
O=c1c2ccccc2sn1Cc1ccccc1 [Compound 5] | 430 ± 30 nM
O=c1c2ccccc2sn1CC1CCCCC1 [Compound 6] | 530 ± 50 nM
CCCCCn1sc2ccccc2c1=O [Compound 7] | 470 nM
O=c1c2ccccc2sn1-c1ccccn1 [Compound 8] | 790 ± 90 nM
O=C1C[C@H](Cn2sc3ccccc3c2=O)CN1 [Compound 9] | 2550 ± 570 nM
COC(=O)Cn1c(=O)c2ccccc2[s+]1[O-] (stereo not drawn) [Compound 12] | 20100 ± 1120 nM

Same assay, conditions: M^pro (0.3 µM) incubated 15 min with compound, TSAVLQ/SGFRK-NH2 peptide (4 µM), 10 min reaction; read-out: SPE-MS pIC50 (converted)

Structure (SMILES) | IC50
O=c1c2cc(Br)ccc2sn1-c1ccccc1 [Compound 3e] | 339 ± 19.9 nM
O=c1c2cnccc2sn1-c1ccccc1 [Compound 3f] | 427 nM
CC(C)CCn1sc2ccccc2c1=O [Compound 4a] | 417 nM
CC(C)CCn1sc2ccc(Br)cc2c1=O [Compound 4d] | 339 nM
O=c1c2ccccc2sn1Cc1ccccc1 [Compound 5] | 437 nM
O=C1C[C@H](Cn2sc3ccccc3c2=O)CN1 [Compound 9] | 2510 nM
COC(=O)CCn1sc2ccccc2c1=O [Compound 11] | 389 ± 49.9 nM

Same assay, conditions: read-out: SPE-MS pIC50 (converted)

Structure (SMILES) | IC50
O=c1c2ccccc2sn1-c1ccccc1 [Compound 3a] | 339 ± 69.8 nM

Each compound was assayed against T1, SARS-CoV-2 main protease (M^pro) (assay: protein-observed mass spectrometry (POMS) under denaturing conditions, number of covalent reactions). Details: 40 μM compound, 2 μM M^pro, 20 mM HEPES, pH 7.5, 50 mM NaCl; covalent reactions with M^pro.
Format: binding

Structure (SMILES) | Apparent max. no. of reactions | most dominant no. of reactions
O=c1c2ccccc2[se]n1-c1ccccc1 [Compound 1, ebselen, reference compound] | 12/12 | 12/12
O=c1[nH]sc2ccccc12 [Compound 2] | 6 | 2
O=c1c2ccccc2sn1-c1ccccc1 [Compound 3a] | 11/11 | 11/11
Cc1cccc2c(=O)n(-c3ccccc3)sc12 [Compound 3b] | 1 | 0
O=c1c2cccc(Br)c2sn1-c1ccccc1 [Compound 3c] | completely prevents irreversible covalent reaction | –
O=c1c2cccc(-c3ccccc3)c2sn1-c1ccccc1 [Compound 3d] | completely prevents irreversible covalent reaction | –
O=c1c2cc(Br)ccc2sn1-c1ccccc1 [Compound 3e] | – | 1
O=c1c2cnccc2sn1-c1ccccc1 [Compound 3f] | 9 | 5
CC(C)CCn1sc2ccccc2c1=O [Compound 4a] | 6 | 4
Cc1cccc2c(=O)n(CCC(C)C)sc12 [Compound 4b] | 0 | –
CC(C)CCn1sc2c(Br)cccc2c1=O [Compound 4c] | completely prevents irreversible covalent reaction | –
CC(C)CCn1sc2ccc(Br)cc2c1=O [Compound 4d] | 2 | 0
O=c1c2ccccc2sn1Cc1ccccc1 [Compound 5] | 6 | 4
O=c1c2ccccc2sn1CC1CCCCC1 [Compound 6] | 6 | 4
CCCCCn1sc2ccccc2c1=O [Compound 7] | 5 | 4
O=c1c2ccccc2sn1-c1ccccn1 [Compound 8] | 6 | 2
COCCn1sc2ccccc2c1=O [Compound 10] | 5 | 2
COC(=O)CCn1sc2ccccc2c1=O [Compound 11] | 6 | 2

Same assay, conditions: 40 μM compound, 2 μM M^pro, 20 mM HEPES, pH 7.5, 50 mM NaCl; covalent reactions with M^pro; listed as 3 a

Structure (SMILES) | Apparent max. no. of reactions | most dominant no. of reactions
O=c1c2ccccc2sn1-c1ccccc1 [Compound 3a] | 11 | 11

Same assay, conditions: 40 μM compound, 2 μM M^pro, 20 mM HEPES, pH 7.5, 50 mM NaCl; covalent reactions with M^pro; listed as 4 d

Structure (SMILES) | most dominant no. of reactions
CC(C)CCn1sc2ccc(Br)cc2c1=O [Compound 4d] | no reaction

Same assay, conditions: 40 μM compound, 2 μM M^pro, 20 mM HEPES, pH 7.5, 50 mM NaCl; covalent reactions with M^pro; listed as ebselen

Structure (SMILES) | Apparent max. no. of reactions
O=c1c2ccccc2[se]n1-c1ccccc1 [Compound 1, ebselen, reference compound] | up to 12
